Experimental data: patent US6143493A, “HCMV-specific peptides, agents therefor and the use thereof” (Dade Behring Marburg GmbH, priority 1991, dated 2000)

Key:
[1] = tested on: CMV IgG-positive sera; assay: ELISA on peptide-coated microtiter plates with HCMV-positive human sera (localization of epitopes); type: binding; conditions: plates coated with 2.5 μg peptide per ml, serum 1:2; for Reactivity (individual reactivities of particularly reactive peptides with the assayed group of CMV IgG-positive sera): Table 3; for Reactivity (individual reactivities of the synthetic pXP1 segments with the assayed group of CMV IgG-positive sera): Table 2
Procedure: A microtiter plate with 96 wells was coated with a synthesized peptide. To do this, a solution of 2.5 μg of peptide per ml of carbonate buffer was made up and introduced in 100 μl portions into the wells for the coating. The peptides were adsorbed onto the surfaces at 4° C. overnight and, after removal of the peptide solution, the wells were washed several times with washing buffer (50 mM Tris, pH 7.2, 10 mM EDTA, 0.2% Tween 20). Then individual human serum samples in a 1:2 dilution were introduced and incubated at 37° C. for 1 hour. After another washing step, the conjugate antibody specific for human IgG antibodies or human IgM antibodies and labeled with peroxidase was added and the mixture was incubated at room temperature for 0.5 hour. The reaction was subsequently stopped by adding 0.5 M sulfuric acid and extinction of the individual samples was measured at a wavelength of 450/650 nm in a photometer.
To test the immunogenicity, peptides of various length from the complete amino-acid sequence region from 718 to 880 of the HCMV protein pp150 (Tab. 2 and 3) were synthesized as described in Example 1. Subsequently, as in Example 2, the microtiter plates were coated with the synthesized peptides, and the immunological reactivity was assayed. […] The three immunologically reactive peptides have the following sequences: […]

[2] = tested on: monoclonal antibody 87-55/02; assay: Reaction of monoclonal antibody 87-55/02 with peptide-coated ELISA plate; type: binding; conditions: immunoblot and ELISA reactivity
Description: It was concluded from the method for selecting the monoclonal antibody that the identified epitope must have a very important structure which is not even destroyed by denaturation of the complete protein. This monoclonal antibody correspondingly reacts both with the synthesized peptide 2.7 (SEQ ID NO:26) and with the recombinant protein XP1 (SEQ ID NO:33) and the pp150 protein of HCMV.

Row | Molecule | Reactivity (individual reactivities of particularly reactive peptides with the assayed group of CMV IgG-positive sera) [1] [%] | Reactivity (individual reactivities of the synthetic pXP1 segments with the assayed group of CMV IgG-positive sera) [1] [%] | reaction with monoclonal antibody 87-55/02 [2]
1 | phe glu gln pro thr leu thr phe gly ala gly val asn val pro ala gly ala gly ala ala ile leu thr pro thr pro val asn pro ser thr ala pro ala pro ala (FEQPTLTFGAGVNVPAGAGAAILTPTPVNPSTAPAPA) [Peptide 1.4] | 90 |  | 
2 | pro arg ala ala val thr gln thr ala ser arg asp ala ala (PRAAVTQTASRDAA) [Peptide 3.1] | 60 | 60 | 
3 | ala tyr lys phe glu gln pro thr leu thr phe gly ala gly val asn val pro ala gly ala gly ala ala ile leu thr pro thr pro val asn pro ser thr ala pro ala pro ala pro (AYKFGQPTLTFGAGVNVPAGAGAAILTPTPVNPSTAPAPAP) [Peptide 1.13] | 90 |  | 
4 | ala ser arg asp ala ala asp glu val trp ala leu arg asp gln thr ala (ASRDAADEVWALRDQTA) [Peptide 3.2] | 80 | 80 | 
5 | pro ala gly ala gly ala ala ile leu thr pro thr pro val asn pro ser thr ala pro ala pro ala pro thr pro thr phe ala gly thr (PAGAGAAILTPTPVNPSTAPAPAPTPTFAGT) [Peptide 1.10] | 80 |  | 
6 | arg ala trp ala leu lys asn pro his leu ala tyr asn pro phe (RAWALKNPHLAYNPF) [Peptide 2.10] | 80 | 80 | 
7 | pp150: HCMV protein pp150 (protein, UniProt P08318 1-1048, looked up) Large structural …: MSLQFIGLQRRDVVALVNFLRHLTQKPDVDLEAHPKILKKCGEKRLHRRTVLFNELMLWLGYYRELRFHNPDLSSVLEEFEVRCVAVARRGYTYPFGDRGKARDHLAVLDRTEFDTDVRHDAEIVERALVSAVILAKMSVRETLVTAIGQTEPIAFVHLKDTEVQRIEENLEGVRRNMFCVKPLDLNLDRHANTALVNAVNKLVYTGRLIMNVRRSWEELERKCLARIQERCKLLVKELRMCLSFDSNYCRNILKHAVENGDSADTLLELLIEDFDIYVDSFPQSAHTFLGARSPSLEFDDDANLLSLGGGSAFSSVPKKHVPTQPLDGWSWIASPWKGHKPFRFEAHGSLAPAAEAHAARSAAVGYYDEEEKRRERQKRVDDEVVQREKQQLKAWEERQQNLQQRQQQPPPPARKPSASRRLFGSSADEDDDDDDDEKNIFTPIKKPGTSGKGAASGGGVSSIFSGLLSSGSQKPTSGPLNIPQQQQRHAAFSLVSPQVTKASPGRVRRDSAWDVRPLTETRGDLFSGDEDSDSSDGYPPNRQDPRFTDTLVDITDTETSAKPPVTTAYKFEQPTLTFGAGVNVPAGAGAAILTPTPVNPSTAPAPAPTPTFAGTQTPVNGNSPWAPTAPLPGDMNPANWPRERAWALKNPHLAYNPFRMPTTSTASQNTVSTTPRRPSTPRAAVTQTASRDAADEVWALRDQTAESPVEDSEEEDDDSSDTGSVVSLGHTTPSSDYNNDVISPPSQTPEQSTPSRIRKAKLSSPMTTTSTSQKPVLGKRVATPHASARAQTVTSTPVQGRLEKQVSGTPSTVPATLLQPQPASSKTTSSRNVTSGAGTSSASSARQPSASASVLSPTEDDVVSPATSPLSMLSSASPSPAKSAPPSPVKGRGSRVGVPSLKPTLGGKAVVGRPPSVPVSGSAPGRLSGSSRAASTTPTYPAVTTVYPPSSTAKSSVSNAPPVASPSILKPGASAALQSRRSTGTAAVGSPVKSTTGMKTVAFDLSSPQKSGTGPQPGSAGMGGAKTPSDAVQNILQKIEKIKNTEE |  |  | reacts
8 | XP1: recombinant protein section, amino acid 718-880 of HCMV protein pp150 (protein) DPRFTDTLVDITDTETSAKPPVTTAYKFEQPTLTFGAGVNVPAGAGAAILTPTPVNPSTAPAPAPTPTFAGTQTPVNGNSPWAPTAPLPGDMNPANWPRERAWALKNPHLAYNPFRMPTTSTASQNTVSTTPRRPSTPRAAVTQTASRDAADEVWALRDQTA |  |  | reacts
